# Reference: patent US11701372B2, “Inhalation formulations of 1'-cyano substituted carba-nucleoside analogs” (priority 2020, dated 2023)
# Where two headings read alike, the source gives them in different places.
# Key:
# [1] = Plasma PK of Formula Ia and metabolites after inhalation in African Green Monkeys; details: both, monkey, in vivo
# Description: (§1) The average deposited dose was calculated at 0.168 mg/kg and 0.536 mg/kg, respectively. Plasma, peripheral blood mononuclear cells (PBMCs), trachea, bronchi, lung lobe, liver, kidney, nasal mucosa and nasopharyngeal mucosa samples were collected in this study.
# in vivo [2] = details: both, monkey, 0.168 mg/kg
# Description: as §1
# [3] = In use testing of reconstituted solutions in IV bags and IV tubings; format: physicochemical
# From the text: The IV bags and IV tubings were sampled over time and tested for % assay/degradation.
# in vivo [4] = details: both, monkey, inhaled or intranasal
# Description: as §1
# [5] = both, monkey, in vivo, 0.168 mg/kg
# Description: as §1
# [6] = PBMC concentrations of metabolites after inhalation in African Green Monkeys; details: both, monkey, in vivo
# Description: as §1
# [7] = format: physicochemical; details: for % assay/degs: T = 0
# Description: For each condition, samples were staged at ambient and refrigerated conditions. Samples were analyzed for % assay/degs, appearance, reconstitution time, pH, and compared to T=0. The structures of the key impurities/metabolites are shown below.
# [8] = PK following IV administration of Formula Ia in African Green Monkeys; design: species or system African Green Monkeys; details: monkey, in vivo; 10 mg/kg IV AGM; read-out: AUC0-t
# [9] = inhaled or intranasal, 0.168 mg/kg
# [10] = inhaled or intranasal, 0.536 mg/kg
compound,measurement,setting,value
N#C[C@@]1(c2ccc3c(N)ncnn23)O[C@H](CO)[C@@H](O)[C@H]1O [Compound A],concentration at 0.25 h,[1]; 0.168 mg/kg,3 ± 1 nM
same,concentration at 1 h,[1]; 0.168 mg/kg,31 ± 7 nM
same,concentration at 2 h,[1]; 0.168 mg/kg,25 ± 5 nM
same,concentration at 24 h,[1]; 0.168 mg/kg,2 nM
same,concentration at 0.75 h,[1]; 0.536 mg/kg,29 ± 8 nM
same,concentration at 1.52 h,[1]; 0.536 mg/kg,58 ± 3 nM
same,concentration at 2 h,[1]; 0.536 mg/kg,71 ± 11 nM
same,concentration at 4 h,[1]; 0.536 mg/kg,43 ± 9 nM
same,concentration at 8 h,[1]; 0.536 mg/kg,22 ± 5 nM
same,concentration at 24 h,[1]; 0.536 mg/kg,5 ± 1 nM
same,AUC(0-t),[1]; [9],0.191 ± 0.03 µM·h
same,Cmax,[1]; [9],31 ± 7 nM
same,half-life,[1]; [9],7.58 ± 1.03 h
same,AUC(0-t),[1]; [10],0.539 ± 0.076 µM·h
same,half-life,[1]; [10],7.1 ± 0.36 h
same,concentration at 24 h,in vivo [2],302 ± 44 nM
same,% assay/degradation,"[3]; 0 h, 0.3 mg/mL",0.02 % w/w
same,% assay/degradation,"[3]; 30 mg (IV Bag), Ambient 8 h",0.02 % w/w
same,% assay/degradation,"[3]; 30 mg (IV Bag), Ambient 24 h",0.02 % w/w
same,% assay/degradation,"[3]; 30 mg (IV Bag), T = 0 (2-8° C. series)",0.02 % w/w
same,% assay/degradation,"[3]; 30 mg (IV Tube), Ambient 6 Hours",0.03 % w/w
same,% assay/degradation,"[3]; 200 mg (IV Bag), 2-8° C. 24 h",0.02 % w/w
same,% assay/degradation,"[3]; 200 mg (IV Bag), 2-8° C. 48 h",0.02 % w/w
same,% assay/degradation,"[3]; 200 mg (IV Bag), Ambient 8 h",0.02 % w/w
same,% assay/degradation,"[3]; 200 mg (IV Bag), Ambient 24 h",0.02 % w/w
same,% assay/degradation,"[3]; 200 mg (IV Bag), T = 0 (2-8° C. series)",0.02 % w/w
same,% assay/degradation,"[3]; 200 mg in 100 mL 0.9% Saline (IV Bag), T = 0 (Ambient series)",0.02 % w/w
same,% assay/degradation,"[3]; 4 h, 0.3 mg/mL",0.02 % w/w
same,% assay/degradation,"[3]; 4 h, 2 mg/mL",0.02 % w/w
same,% assay/degradation,"[3]; 6 h, 2 mg/mL",0.02 % w/w
same,% assay/degradation,"[3]; 24 h, 0.3 mg/mL",0.02 % w/w
same,% assay/degradation,"[3]; 48 h, 0.3 mg/mL",0.02 % w/w
same,Tmax,in vivo [4]; 0.168 mg/kg,1 h
same,Cmax,in vivo [4]; 0.536 mg/kg,71 ± 11 nM
same,Tmax,in vivo [4]; 0.536 mg/kg,2 h
same,mean estimated terminal elimination half-life,[5],7.58 h
same,concentration at 2 h,[6]; 0.168 mg/kg,331 ± 92 nM
same,concentration at 24 h,[6]; 0.536 mg/kg,457 ± 130 nM
same,"% assay/degs, difference from T = 0","[7]; pH 1.8, 2-8° C., 2 h",0.00%
same,"% assay/degs, difference from T = 0","[7]; pH 1.8, 2-8° C., 3 h",0.00%
same,"% assay/degs, difference from T = 0","[7]; pH 1.8, 2-8° C., 8 h",0.00%
same,"% assay/degs, difference from T = 0","[7]; pH 1.8, 2-8° C., 24 h",0.01%
same,"% assay/degs, difference from T = 0","[7]; pH 1.8, 2-8° C., 48 h",0.02%
same,"% assay/degs, difference from T = 0","[7]; pH 1.8, Ambient, 1 h",0.00%
same,"% assay/degs, difference from T = 0","[7]; pH 1.8, Ambient, 2 h",0.00%
same,"% assay/degs, difference from T = 0","[7]; pH 1.8, Ambient, 3 h",0.01%
same,"% assay/degs, difference from T = 0","[7]; pH 1.8, Ambient, 8 h",0.01%
same,"% assay/degs, difference from T = 0","[7]; pH 1.8, Ambient, 24 h",0.05%
same,"% assay/degs, difference from T = 0","[7]; pH 1.8, Ambient, 48 h",0.09%
same,% assay/degs,[7]; pH 1.8,0.02%
same,"% assay/degs, difference from T = 0","[7]; pH 2.0, 2-8° C., 2 h",0.00%
same,"% assay/degs, difference from T = 0","[7]; pH 2.0, 2-8° C., 3 h",0.00%
same,"% assay/degs, difference from T = 0","[7]; pH 2.0, 2-8° C., 8 h",0.00%
same,"% assay/degs, difference from T = 0","[7]; pH 2.0, 2-8° C., 24 h",0.00%
same,"% assay/degs, difference from T = 0","[7]; pH 2.0, 2-8° C., 48 h",0.01%
same,"% assay/degs, difference from T = 0","[7]; pH 2.0, Ambient, 1 h",0.00%
same,"% assay/degs, difference from T = 0","[7]; pH 2.0, Ambient, 2 h",0.00%
same,"% assay/degs, difference from T = 0","[7]; pH 2.0, Ambient, 3 h",0.00%
same,"% assay/degs, difference from T = 0","[7]; pH 2.0, Ambient, 8 h",0.01%
same,"% assay/degs, difference from T = 0","[7]; pH 2.0, Ambient, 24 h",0.03%
same,"% assay/degs, difference from T = 0","[7]; pH 2.0, Ambient, 48 h",0.06%
same,% assay/degs,[7]; pH 2.0,0.02%
same,"% assay/degs, difference from T = 0","[7]; pH 3.5, 2-8° C., 2 h",0.00%
same,"% assay/degs, difference from T = 0","[7]; pH 3.5, 2-8° C., 8 h",0.00%
same,"% assay/degs, difference from T = 0","[7]; pH 3.5, 2-8° C., 24 h",0.00%
same,"% assay/degs, difference from T = 0","[7]; pH 3.5, 2-8° C., 48 h",0.00%
same,"% assay/degs, difference from T = 0","[7]; pH 3.5, 2-8° C., 72 h",0.00%
same,"% assay/degs, difference from T = 0","[7]; pH 3.5, 2-8° C., 96 h",0.00%
same,"% assay/degs, difference from T = 0","[7]; pH 3.5, 2-8° C., 168 h",0.00%
same,"% assay/degs, difference from T = 0","[7]; pH 3.5, Ambient, 2 h",0.00%
same,"% assay/degs, difference from T = 0","[7]; pH 3.5, Ambient, 8 h",0.00%
same,"% assay/degs, difference from T = 0","[7]; pH 3.5, Ambient, 24 h",0.00%
same,"% assay/degs, difference from T = 0","[7]; pH 3.5, Ambient, 48 h",0.00%
same,"% assay/degs, difference from T = 0","[7]; pH 3.5, Ambient, 72 h",0.00%
same,"% assay/degs, difference from T = 0","[7]; pH 3.5, Ambient, 96 h",0.01%
same,"% assay/degs, difference from T = 0","[7]; pH 3.5, Ambient, 168 h",0.01%
same,% assay/degs,[7]; pH 3.5,0.02%
same,"% assay/degs, difference from T = 0","[7]; pH 3.8, 2-8° C., 7.2 h",0.00%
same,"% assay/degs, difference from T = 0","[7]; pH 3.8, 2-8° C., 24 h",0.00%
same,"% assay/degs, difference from T = 0","[7]; pH 3.8, 2-8° C., 96 h",0.00%
same,"% assay/degs, difference from T = 0","[7]; pH 3.8, 2-8° C., 168 h",0.00%
same,"% assay/degs, difference from T = 0","[7]; pH 3.8, Ambient, 7.2 h",0.00%
same,"% assay/degs, difference from T = 0","[7]; pH 3.8, Ambient, 24 h",0.00%
same,"% assay/degs, difference from T = 0","[7]; pH 3.8, Ambient, 96 h",0.00%
same,"% assay/degs, difference from T = 0","[7]; pH 3.8, Ambient, 168 h",0.00%
same,% assay/degs,[7]; pH 3.8,0.02%
same,"% assay/degs, difference from T = 0","[7]; pH 4.0, 2-8° C., 7.2 h",0.00%
same,"% assay/degs, difference from T = 0","[7]; pH 4.0, 2-8° C., 24 h",0.00%
same,"% assay/degs, difference from T = 0","[7]; pH 4.0, 2-8° C., 96 h",0.00%
same,"% assay/degs, difference from T = 0","[7]; pH 4.0, 2-8° C., 168 h",0.00%
same,"% assay/degs, difference from T = 0","[7]; pH 4.0, Ambient, 7.2 h",0.00%
same,"% assay/degs, difference from T = 0","[7]; pH 4.0, Ambient, 24 h",0.00%
same,"% assay/degs, difference from T = 0","[7]; pH 4.0, Ambient, 96 h",0.00%
same,"% assay/degs, difference from T = 0","[7]; pH 4.0, Ambient, 168 h",0.00%
same,% assay/degs,[7]; pH 4.0,0.02%
same,AUC(0-t),[8],9.06 µM·h
